# Test system: suspension culture of E. peplus
# Assay: Precursor feeding of E. peplus suspension culture with angelic acid: cell growth
# Format: cell-based, Euphorbia peplus
# Settings: 0.5 mM angelic acid added to E. peplus suspension culture, cultivated for 7-14 days; sterile water as negative control
# Experimental: Further increase of Ingenol-3-angelate was achieved using angelic acid as a precursor. A suspension culture of E. peplus, newly transferred or up to 14 days old, was supplemented with 0.5 mM angelic acid. […] The same amount of sterile water was used as a negative control. After addition of angelic acid, the culture was cultivated for 7-14 days (see FIG. 6).
smiles,measurement,value
"C/C=C(/C)C(=O)O [angelic acid, 2-methyl-2(Z)-butenoic acid]",influence on cell growth,no influence on cell growth

# — US10172306B2, “Production of ingenol, ingenol esters and/or tiglian-3-one derivatives by euphorbiaceae plant cell suspension cultures” (Phyton Holdings, LLC, priority 2015, dated 2019)
